From patent publication US20240417399A1, “ARYL HYDROCARBON RECEPTOR (AHR) MODULATORS AND THERAPEUTIC USES THEREOF” (GALILEO BIOSYSTEMS, INC., priority 2021, published 2024)

Assays:
CCL2 = CCL2 release from human keratinocytes, inflammation induced by IL-4, IL-13, IL-22 and IFN-γ; assay type: cell-based; details: human keratinocytes induced by IL-4, IL-13, IL-22 and IFN-γ
Description: (§1) Inflammation of human keratinocytes was induced by IL-4, IL-13, IL-22 and IFN-γ. […] FIG. 5B depicts concentration response curves of CCL2 release and cell viability for tapiranof.

IL-17 = assay: Imiquimod (IMQ)-induced skin inflammation: IL-17 gene expression in ear by qPCR; assay type: in vivo; details: Balb/c mice, topical on right ear, 20 μL, 50 mM once daily Day 1 to Day 9, IMQ cream
Procedure: (§2) The compounds are administered on the right ear once daily from Day 1 to Day 9 for 9 consecutive days. […] Daily Clobetasol dosage is 20 mg of 0.05% cream. One hour after administration, 15 mg imiquimod (IMQ) cream (5%, Aldaras) is applied topically on the right ear from Day 1 to Day 9 for 9 consecutive days. Ear swelling is measured (mm) as an index of inflammation on Day 0 and thereafter 30 min before dosing on Days 2, 4, 6 and 8. On Day 10, ear swelling is measured 24 hours after the last dosing. Ear edema is calculated by subtracting the thickness of Day 0 (normal control) from Day n (treated ear). Percent inhibition is calculated according to the formula: (Lc−Lt)/Lc×100, where Lc and Lt refer to increase of ear thickness in control and treated mice, respectively. Clinical scoring is done on the same days as the measurement of ear swelling. Body weight is recorded on Day 0 and thereafter daily before dosing. […] Right ears are harvested, weighed after the last ear swelling measurement, and cut into two parts, one part to be kept in 10% formalin for histopathological examination and the second part to be stored in RNAlater® solution at −20° C. for detection of IL-17 A, IL-22, GAPDH, and beta defensin with quantitative real-time PCR (qPCR). Dermal thickness is measured after taking photographs under a light microscope for the histopathological examination sections. […]

IL-8 = IL-8 release from human keratinocytes, inflammation induced by IL-17 and IFN-α; assay type: cell-based; details: human keratinocytes induced by IL-17 and IFN-α
Description: FIG. 6B depicts concentration response curves of inhibition of IL-8 release and cell viability for tapiranof.

IL-2 = IL-2 release from T-cells, inflammation induced by CD2, CD3, and CD28; assay type: cell-based; details: highest test concentrations
Description: (§3) Inflammation of T-cells were induced by CD2, CD3, and CD28. […] FIG. 7B depicts concentration response curves of inhibition of IL-2 and IL-4 release and cell viability for tapiranof.

[1] = Imiquimod (IMQ)-induced skin inflammation: body weight; assay type: in vivo; details: Balb/c mice, topical on right ear, 20 μL, 50 mM once daily Day 1 to Day 9
Procedure: as §2

Male Balb/c mice = assay: Imiquimod (IMQ)-induced skin inflammation: ear swelling; assay type: in vivo; details: topical on right ear, 20 μL, 50 mM once daily Day 1 to Day 9, IMQ cream
Procedure: as §2

IL-4 = IL-4 release from T-cells, inflammation induced by CD2, CD3, and CD28; assay type: cell-based; details: highest test concentrations
Description: as §3

human keratinocytes = assay: Cell viability of human keratinocytes, inflammation induced by IL-4, IL-13, IL-22 and IFN-γ; assay type: cell-based; details: human keratinocytes induced by IL-4, IL-13, IL-22 and IFN-γ
Description: as §1

## O=C(c1nc2ccccc2[nH]1)c1c[nH]c2ccccc12 [Compound 10]
CCL2
  inhibition of CCL2 release: inhibited release of CCL2
IL-17
  IL-17 gene expression in the ear: reduction in IL-17 gene expression
IL-8
  inhibition of IL-8 release: inhibited release of IL-8
IL-2
  inhibition of IL-2 release: inhibited release of IL-2 and IL-4 at the highest test concentrations
[1]
  effect on body weights: no significant effect on body weights
Male Balb/c mice
  ear swelling compared to vehicle: significant reductions in ear swelling
IL-4
  inhibition of IL-4 release: inhibited release of IL-2 and IL-4 at the highest test concentrations

## CC(C)c1c(O)cc(/C=C/c2ccccc2)cc1O [tapiranof, reference compound]
CCL2
  inhibition of CCL2 release: inhibited release of CCL2
IL-8
  inhibition of IL-8 release: inhibited release of IL-8
IL-2
  inhibition of IL-2 release: inhibited release of IL-2 and IL-4 at the highest test concentrations
Human keratinocytes
  cell viability: inhibition of cell viability at higher concentrations
IL-4
  inhibition of IL-4 release: inhibited release of IL-2 and IL-4 at the highest test concentrations
